Entries after “also recorded” stand apart in the source; their conditions may differ. Like-named read-outs stand apart in the source and are kept apart here.
Assays:
[1] = system: MCA205 fibrosarcoma tumor; format: in vivo, mouse; settings: single i.p.
Protocol: 7-8 weeks-old female C57BL/6 mice (mean body weight, 20 g) were purchased from Harlan Laboratories (Gannat, France). Animals were used in pathogen-free conditions. MCA205 fibrosarcoma tumor cell line (syngenic from C57Bl/6 mice) was kindly provided by Dr Yamazaki Takahiro (INSERM U1015, Gustave Roussy, Villejuif, France). They were harvested at 37° C. under 5% CO2 in Gibco™ RPMI 1640 medium (Paisley, UK) supplemented with 10% Fetal Bovine Serum (Paisley, UK) and 2 mM L-glutamine (Invitrogen, USA). All animal experiments were carried out in compliance with French and European laws and regulations and by the CEEA26 Ethic committee and the ministry of national education, higher education and research and carried out under conditions established by the European Community (Directive 2010/63/2015-038).
(§1) 8·10^5 tumor cells were inoculated subcutaneously (s.c.) in the right flank of C57Bl/6 mice on DO.
Regarding study for combination between chemotherapy (G-IFO) and anti-PD1 mAbs, mice received G-IFO or vehicle on D9 then 200 μg/mouse i.p. injections of anti-PD1 mAbs (clone RMP1-14) or its isotype control Rat IgG2a (clone 2A3) on D12, D15 and D19. Tumor volume was followed-up three times a week by measuring the length and width using a caliper. In order to normalize tumor measurements for each day VTDx to VTDi (VTDx/VTDi) ratio was calculated; VTDi corresponds to the tumor volume the day of treatment initiation and VTDx corresponds to the tumor volume on each measurement day for each mouse.

[2] = system: IFNγ, IL-17A and IL-6 secretion; assay: TCR-driven cytokine release by splenocytes of treated naive mice; format: in vivo, mouse; settings: CPA 100 mg/kg, IFO 100, 150 and 200 mg/kg, CD3ε+CD28 stimulation
Protocol: (§2) Female C57BL/6 mice of 7 to 8 weeks were randomly assigned to the different treatment groups. […] Both drugs were dissolved in a solution of NaCl 0.9%. […] Seven days post treatment, the mice were sacrificed, spleens and tumors were collected. After lysis of red blood cells with ammonium chloride splenic viable cells were quantified with Trypan Blue with Vi-CELL XR (Beckman Coulter).
(§3) From spleen cell suspension, a total of 2·10^5 cells per well were incubated in 96 well Nunc MaxiSorp® plates (eBioscience) precoated with anti-CD3ε mAbs (clone 145-2C11, 10 μg/mL); eBioscience) and/or anti-CD28 mAbs (clone 37.57, 2 μg/mL; BD Pharmingen). The supernatants were assayed after 48 hours of incubation at 37° C. under 5% CO2 using Cytokine concentrations were quantified in the supernatant using a Bio-Plex™ Mouse Cytokine Standard 23-Plex, Group I Assay (bio rad, M60009RDPD). The panel was comprised of the following cytokines and chemokines: eotaxin, Granulocyte-Colony Stimulating Factor (G-CSF), Granulocyte-Macrophage-Colony Stimulating Factor (GM-CSF), interferon gamma (IFNγ), interleukin (IL)-1α (IL-1α), IL-1β, IL-2, IL-3, IL-4, IL-5, IL-6, IL-9, IL-10, IL-12p40, IL-12p70, IL-13, IL-17A, Keratinocyte Chemoattractant (KC), Macrophage Chemotactic Protein-1 (MCP-1), Macrophage Inflammatory Protein (MIP)-1alpha (MIP-1α), MIP-1β, Regulated on Activation Normal T cell Expressed and Secreted (RANTES) and Tumor Necrosis Factor-alpha (TNF-α). Results were analyzed using Bio-Plex Manager Software V 6.1 (Bio-Rad Laboratories, Hercules, CA, USA). […] These three cytokines were then quantified using mouse IL-17A ELISA Ready-SET-Go® (eBiosciences), Mouse IFNy ELISA Set (BD Biosciences) and Mouse IL-6 ELISA Set (BD Biosciences).

B cells = format: in vivo, mouse; settings: for B cell depletion in the spleen: FIG. 4, IFO 150 mg/kg, CPA 100 mg/kg, G-IFO eq. 100 or 150 mg/kg, single i.p., 7 days
Protocol: as §2
(§4) Briefly, tumor dissociation was done with GentleMACS™ Dissociator after adding ADNase (260913, Millipore) and […] (5401127001, Sigma) to weighed and cut tumors. Tumor cells were incubated for 40 min at 37° C. under stirring and then quantified with Trypan Blue with Vi-CELL XR (Beckman Coulter). Before staining, Fcγ-receptors were blocked for 15 min at 4° C. using anti-CD16/32 functional grade purified antibodies (eBioscience, Paris, France). Cells were incubated for 30 min at 4° C. with antibodies for cell surface staining. For FoxP3 staining, cells were fixed and permeabilized after cell surface staining according to the FoxP3 kit protocol (eBioscience, Paris, France). Samples were acquired on 10-colors Gallios cytometer (Beckman Coulter, Villepinte, France). Analyses were performed using Kaluza software 1.3 (Beckman Coulter). Two different panels were used to identify immune cells. First leucocytes were identified by the use of FITC-conjugated anti-mouse CD45. T and B lymphocytes were identified using APC-Cy7-conjugated anti-mouse CD3 and BV421-conjugated anti-mouse CD19 respectively. CD4^+ and CD8^+ T cells were separated using PE-Cy7-conjugated anti-mouse CD4 and APC-R700-conjugated anti-mouse CD8a staining among CD3 positive cells, respectively. Treg cells were stained using APC-conjugated anti-mouse FoxP3 staining among CD3^+CD4^+ T cells (Table 1).

several cancerous cells = settings: cited from earlier work
[3] = system: IFNγ, IL-17A and IL-6 secretion; assay: TCR-driven cytokine release by splenocytes of treated MCA205 tumor-bearing mice; format: in vivo, mouse
Protocol: (§5) Female C57BL/6 mice of 7 to 8 weeks were randomly assigned to the different treatment groups. […] Both drugs were dissolved in a solution of NaCl 0.9%. […] The administrations were performed by a single i.p. injection with a volume of 20 mL/kg or 10 mL/kg when adding G-IFO groups. Seven days post treatment, the mice were sacrificed, spleens and tumors were collected. After lysis of red blood cells with ammonium chloride splenic viable cells were quantified with Trypan Blue with Vi-CELL XR (Beckman Coulter).
as §3

T cells = format: in vivo, mouse; settings: for T cell counts: tumor-bearing mice
Protocol: as §5, §4

[4] = system: large panel of tumor cells; settings: in vitro; cited from earlier work
rhabdomyosarcoma = settings: murine model of rhabdomyosarcoma; cited from earlier work
[5] = mice, intravenous route; cited from earlier work
[6] = system: MCA205 fibrosarcoma tumor; assay: Antitumor activity of IFO in MCA205-bearing mice depleted in CD4+ and/or CD8+ T cells; format: in vivo, mouse
Description: as §1

[7] = system: advanced refractory soft tissue; settings: high dose, cumulative dose of 12 000 mg/m2; cited from earlier work
osteosarcoma = settings: high dose, cumulative dose of 14 000 mg/m^2, cited from earlier work
[8] = IFO 100 and 150 mg/kg, CD3ε and CD28 co-stimulation

SMILES: O=P1(N(CCCl)CCCl)NCCCO1 (stereo not drawn) [CPA, Cyclophosphamide]
- tumor growth ([1]; CPA 100 mg/kg): Significant reduction of the tumor growth
- TCR-driven IFNγ [2]: significantly increased
- TCR-driven IL-6 [2]: significantly increased
- TCR-driven IL-17A [2]: significantly increased
- B cell depletion in the spleen (B cells): Dose-dependent B cell depletion

SMILES: CC(C)=CCC/C(C)=C/CC/C(C)=C/CC/C=C(\C)CC/C=C(\C)CCC(=O)NCCSC1CCOP(=O)(NCCCl)N1CCCl (stereo not drawn) [SQ-thio-IFO]
- cytotoxicity (several cancerous cells): display cytotoxicity

SMILES: CC(C)=CCC/C(C)=C/CC/C(C)=C/CC/C=C(\C)CC/C=C(\C)CCCOC1CCOP(=O)(NCCCl)N1CCCl (stereo not drawn) [SQ-IFO]
- cytotoxicity (several cancerous cells): display cytotoxicity

SMILES: CC(C)=CCC/C(C)=C/COC1CCOP(=O)(NCCCl)N1CCCl (stereo not drawn) [G-IFO, geranyloxy-Ifosfamide]
- tumor growth ([1]; G-IFO eq. 100 mg/kg): able to delay tumor growth; also recorded: showed an antitumoral activity; also recorded: delayed tumor-growth
- tumor growth delay compared to CPA 100 mg/kg ([1]; G-IFO eq. 100 mg/kg, FIG. 2D): lower tumor growth delay
- IFNγ secretion (Th1 polarization) ([3]; G-IFO eq. 100 mg/kg): favored IFNγ secretion; also recorded: increase
- IL-6 secretion ([3]; G-IFO eq. 100 mg/kg): increase
- IFNγ secretion ([3]; G-IFO eq. 150 mg/kg): poor secretion of IFNγ
- IL-6 secretion ([3]; G-IFO eq. 150 mg/kg): high levels of IL-6
- IL-17 secretion ([3]; escalating doses of G-IFO): No significant IL-17 secretion
- T cell depletion (T cells; G-IFO eq. 150 mg/kg): induced T cell depletion
- B cell depletion in the spleen (B cells): Dose-dependent B cell depletion
- B cells population (B cells; G-IFO low dose eq. 100 mg/kg, i.p.): very affected
- cytotoxicity [4]: cytotoxic
- tumor growth (rhabdomyosarcoma): prevent tumor growth
- conversion into 4-hydroxy-ifosfamide metabolite [5]: rapidly converted

SMILES: O=P1(NCCCl)OCCCN1CCCl (stereo not drawn) [IFO, ifosfamide]
- tumor growth ([1]; IFO 100, 150, 200 and 300 mg/kg): delay of tumor growth
- TCR-driven IFNγ [2]: significant increase
- TCR-driven IL-6 [2]: significant increase
- TCR-driven IL-17A [2]: significant increase
- TCR-driven IL-6 compared to CPA 100 mg/kg ([3]; IFO 150 mg/kg): more
- TCR-driven IL-17 compared to CPA 100 mg/kg ([3]; IFO 150 mg/kg): more
- TCR-driven IFNγ [3, 8]: significant secretion
- TCR-driven IL-6 [3, 8]: significant secretion
- TCR-driven IL-17A [3, 8]: significant secretion
- TCR-driven IFNγ ([3]; IFO 200 and 300 mg/kg): failed to induce
- TCR-driven IL-6 ([3]; IFO 200 and 300 mg/kg): remained highly secreted
- TCR-driven IL-17A ([3]; IFO 200 and 300 mg/kg): failed to induce
- T cell counts (T cells; IFO 100 and 150 mg/kg): no T cell counts decrease
- T cell counts (T cells; IFO higher doses (200 and 300 mg/kg)): T cell counts diminution
- B cell depletion in the spleen (B cells): Dose-dependent B cell depletion
- tumor growth ([6]; IFO 150 mg/kg single i.p., non-depleted mice): Significant reduction of the tumor growth
- antitumor effect ([6]; IFO 150 mg/kg, CD4+ T cells and CD8+ T cells depleted mice): decrease of the antitumor effect
- antitumor efficacy ([6]; IFO 150 mg/kg, mice depleted with both CD4+ and CD8+ T cells): completely abolished
- efficacy [7]: effective
- toxicities [7]: major toxicities
- improved disease-free survival (osteosarcoma; children previously treated with conventional chemotherapy): 30 % of patients
- severe nephrotoxicity, share of patients (osteosarcoma): a quarter

From patent publication US20230390312A1, “NOVEL THERAPEUTIC COMBINATIONS COMPRISING DERIVATIVES OF OXAZAPHOSPHORINES FOR THE TREATMENT OF CANCER” (INSTITUT GUSTAVE ROUSSY, priority 2019, published 2023)
